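GI50: concentration for 50% inhibition of growth. TGI: concentration producing complete growth inhibition.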
Legend:
Assay in all cases: NCI-60 cell line screen, 384-well format
NCI-H522 lung = tested on: NCI-H522 lung
HCT-116 colon = tested on: HCT-116 colon
SW-620 colon = tested on: SW-620 colon
OVCAR-3 ovarian = tested on: OVCAR-3 ovarian
SR leukemia = tested on: SR leukemia
RXF 393 renal = tested on: RXF 393 renal
NCI-H23 lung = tested on: NCI-H23 lung
MCF7 breast = tested on: MCF7 breast
LOX IMVI melanoma = tested on: LOX IMVI melanoma
SK-OV-3 ovarian = tested on: SK-OV-3 ovarian
EKVX NSCLC = tested on: EKVX NSCLC
SK-MEL-5 melanoma = tested on: SK-MEL-5 melanoma
SNB-19 CNS = tested on: SNB-19 CNS
IGROV1 ovarian = tested on: IGROV1 ovarian
HCT-15 colon = tested on: HCT-15 colon
HCC-2998 colon = tested on: HCC-2998 colon
SF-539 CNS = tested on: SF-539 CNS
NCI-H322M lung = tested on: NCI-H322M lung
MOLT-4 leukemia = tested on: MOLT-4 leukemia
NCI-H460 NSCLC = tested on: NCI-H460 NSCLC
MDA-MB-468 breast = tested on: MDA-MB-468 breast
M14 melanoma = tested on: M14 melanoma
OVCAR-4 ovarian = tested on: OVCAR-4 ovarian
CAKI-1 renal = tested on: CAKI-1 renal
A549 NSCLC = tested on: A549 NSCLC
HT29 colon = tested on: HT29 colon
T-47D breast = tested on: T-47D breast
SK-MEL-28 melanoma = tested on: SK-MEL-28 melanoma
U251 glioblastoma = tested on: U251 glioblastoma
HS 578T breast = tested on: HS 578T breast
MALME-3M melanoma = tested on: MALME-3M melanoma
UACC-62 melanoma = tested on: UACC-62 melanoma
786-0 renal = tested on: 786-0 renal
NCI-H226 lung = tested on: NCI-H226 lung
SNB-75 CNS = tested on: SNB-75 CNS
RPMI-8226 leukemia = tested on: RPMI-8226 leukemia
TK-10 renal = tested on: TK-10 renal
ACHN renal = tested on: ACHN renal
BT-549 breast = tested on: BT-549 breast
UACC-257 melanoma = tested on: UACC-257 melanoma
DU-145 prostate = tested on: DU-145 prostate
SF-295 CNS = tested on: SF-295 CNS
HL-60(TB) leukemia = tested on: HL-60(TB) leukemia
OVCAR-5 ovarian = tested on: OVCAR-5 ovarian
A498 renal = tested on: A498 renal
PC-3 prostate = tested on: PC-3 prostate
NCI/ADR-RES ovarian = tested on: NCI/ADR-RES ovarian
UO-31 renal = tested on: UO-31 renal
HOP-92 NSCLC = tested on: HOP-92 NSCLC
KM12 colon = tested on: KM12 colon
OVCAR-8 ovarian = tested on: OVCAR-8 ovarian
MDA-MB-231 breast = tested on: MDA-MB-231 breast
MDA-MB-435 melanoma = tested on: MDA-MB-435 melanoma
SN12C renal = tested on: SN12C renal
HOP-62 NSCLC = tested on: HOP-62 NSCLC
COLO 205 colon = tested on: COLO 205 colon
SF-268 CNS = tested on: SF-268 CNS

With COc1cc2nccc(Oc3ccc(NC(=O)Nc4cc(C)on4)c(Cl)c3)c2cc1OC the GI50 (NCI-H522 lung) was 2.51 µM, the TGI (NCI-H522 lung) was 6.54 µM and the GI50 (HCT-116 colon) was 3.51 µM. The TGI (HCT-116 colon) was 11.5 µM, the GI50 (SW-620 colon) was 2.82 µM and the TGI (SW-620 colon) was 7.18 µM. For the same molecule, the GI50 (OVCAR-3 ovarian) was 5.25 µM, the TGI (OVCAR-3 ovarian) was 20.1 µM and the GI50 (SR leukemia) was 3.73 µM. For the same molecule, the TGI (SR leukemia) was 5.34 µM, the GI50 (RXF 393 renal) was 1.65 µM and the TGI (RXF 393 renal) was 4.28 µM. The GI50 (NCI-H23 lung) was 2.65 µM, the TGI (NCI-H23 lung) was 7.77 µM and the GI50 (MCF7 breast) was 4.99 µM. For the same molecule, the TGI (MCF7 breast) was 31.6 µM, the GI50 (LOX IMVI melanoma) was 4.08 µM and the TGI (LOX IMVI melanoma) was 11 µM. It also gave a GI50 (SK-OV-3 ovarian) of 6.78 µM, a TGI (SK-OV-3 ovarian) of 67.1 µM and a GI50 (EKVX NSCLC) of 4.4 µM. The TGI (EKVX NSCLC) was 20.9 µM, the GI50 (SK-MEL-5 melanoma) was 3.35 µM and the TGI (SK-MEL-5 melanoma) was 11.8 µM. It also gave a GI50 (SNB-19 CNS) of 16.6 µM, a TGI (SNB-19 CNS) of over 100 µM and a GI50 (IGROV1 ovarian) of 2.22 µM. It also gave a TGI (IGROV1 ovarian) of 5.21 µM, a GI50 (HCT-15 colon) of 4.16 µM and a TGI (HCT-15 colon) of over 100 µM. It also gave a GI50 (HCC-2998 colon) of 23.9 µM, a TGI (HCC-2998 colon) of 91.9 µM and a GI50 (SF-539 CNS) of 1.24 µM. It also gave a TGI (SF-539 CNS) of 2.95 µM, a GI50 (NCI-H322M lung) of 3.91 µM and a TGI (NCI-H322M lung) of 13.9 µM. For the same molecule, the GI50 (MOLT-4 leukemia) was 1.45 µM, the TGI (MOLT-4 leukemia) was 2.99 µM and the GI50 (NCI-H460 NSCLC) was 4.58 µM. For the same molecule, the TGI (NCI-H460 NSCLC) was 19 µM, the GI50 (MDA-MB-468 breast) was 3.51 µM and the TGI (MDA-MB-468 breast) was 8.5 µM. For the same molecule, the GI50 (M14 melanoma) was 3.72 µM, the TGI (M14 melanoma) was 15.3 µM and the GI50 (OVCAR-4 ovarian) was 5.71 µM. The TGI (OVCAR-4 ovarian) was 25 µM, the GI50 (CAKI-1 renal) was 2.67 µM and the TGI (CAKI-1 renal) was 6.87 µM. It also gave a GI50 (A549 NSCLC) of 3.25 µM, a TGI (A549 NSCLC) of 11 µM and a GI50 (HT29 colon) of 3.17 µM. It also gave a TGI (HT29 colon) of 12.1 µM, a GI50 (T-47D breast) of 4.17 µM and a TGI (T-47D breast) of 23.1 µM. The GI50 (SK-MEL-28 melanoma) was 4.26 µM, the TGI (SK-MEL-28 melanoma) was 21 µM and the GI50 (U251 glioblastoma) was 9.48 µM. The TGI (U251 glioblastoma) was over 100 µM, the GI50 (HS 578T breast) was 2.08 µM and the TGI (HS 578T breast) was 7.41 µM. It also gave a GI50 (MALME-3M melanoma) of 1.81 µM, a TGI (MALME-3M melanoma) of 4.39 µM and a GI50 (UACC-62 melanoma) of 2.9 µM. The TGI (UACC-62 melanoma) was 13.5 µM, the GI50 (786-0 renal) was 3.79 µM and the TGI (786-0 renal) was 12 µM. It also gave a GI50 (NCI-H226 lung) of 0.906 µM, a TGI (NCI-H226 lung) of 3.39 µM and a GI50 (SNB-75 CNS) of 2.53 µM. The TGI (SNB-75 CNS) was 6.7 µM, the GI50 (RPMI-8226 leukemia) was 3.79 µM and the TGI (RPMI-8226 leukemia) was 15.1 µM. For the same molecule, the GI50 (TK-10 renal) was 19.9 µM, the TGI (TK-10 renal) was over 100 µM and the GI50 (ACHN renal) was 3.53 µM. For the same molecule, the TGI (ACHN renal) was 11.6 µM, the GI50 (BT-549 breast) was 3.2 µM and the TGI (BT-549 breast) was 7.18 µM. It also gave a GI50 (UACC-257 melanoma) of 11.9 µM, a TGI (UACC-257 melanoma) of 30.3 µM and a GI50 (DU-145 prostate) of 5.63 µM. The TGI (DU-145 prostate) was 81.3 µM, the GI50 (SF-295 CNS) was 3.18 µM and the TGI (SF-295 CNS) was 11.5 µM. For the same molecule, the GI50 (HL-60(TB) leukemia) was 2.87 µM, the TGI (HL-60(TB) leukemia) was 5.3 µM and the GI50 (OVCAR-5 ovarian) was 4.4 µM. The TGI (OVCAR-5 ovarian) was 21.2 µM, the GI50 (A498 renal) was 5.6 µM and the TGI (A498 renal) was 21 µM. The GI50 (PC-3 prostate) was 6.29 µM, the TGI (PC-3 prostate) was over 100 µM and the GI50 (NCI/ADR-RES ovarian) was 2.9 µM. For the same molecule, the TGI (NCI/ADR-RES ovarian) was 8.81 µM, the GI50 (UO-31 renal) was 2.75 µM and the TGI (UO-31 renal) was 5.98 µM. It also gave a GI50 (HOP-92 NSCLC) of 1.7 µM, a TGI (HOP-92 NSCLC) of 3.33 µM and a GI50 (KM12 colon) of 0.346 µM. For the same molecule, the TGI (KM12 colon) was over 100 µM, the GI50 (OVCAR-8 ovarian) was 4.45 µM and the TGI (OVCAR-8 ovarian) was 41 µM. The GI50 (MDA-MB-231 breast) was 2.38 µM, the TGI (MDA-MB-231 breast) was 6.83 µM and the GI50 (MDA-MB-435 melanoma) was 7.46 µM. For the same molecule, the TGI (MDA-MB-435 melanoma) was 73.4 µM, the GI50 (SN12C renal) was 2.95 µM and the TGI (SN12C renal) was 9.88 µM. For the same molecule, the GI50 (HOP-62 NSCLC) was 9.77 µM, the TGI (HOP-62 NSCLC) was over 100 µM and the GI50 (COLO 205 colon) was 2.59 µM. For the same molecule, the TGI (COLO 205 colon) was 8.26 µM, the GI50 (SF-268 CNS) was 3.06 µM and the TGI (SF-268 CNS) was 8.86 µM.
